Reference: patent US7514251B2, “O-methyltransferases of tetrahydrobenzylisoquinoline alkaloid biosynthesis in Papaver somniferum” (priority 2003, dated 2009)

How the values were obtained:
[1] = target: T1, PSOMT2 ((R,S)-norcoclaurine 6-O-methyltransferase) (Papaver somniferum, UniProt Q6WUC1); experiment: Radioassay of recombinant PSOMT2 with [methyl-3H]-AdoMet (substrate specificity, kinetics, pH and temperature optima); format: biochemical; conditions: 100% activity = 2.0 pmoles/sec/mg total protein; radioassay
T1 construct: The full-length cDNA generated by RT-PCR was ligated into pFastBac HTa; His6 (N); made in house; host or cells: Spodoptera frugiperda Sf9 (baculovirus, pFastBac HTa)
T1 sequence (Q6WUC1 1-346): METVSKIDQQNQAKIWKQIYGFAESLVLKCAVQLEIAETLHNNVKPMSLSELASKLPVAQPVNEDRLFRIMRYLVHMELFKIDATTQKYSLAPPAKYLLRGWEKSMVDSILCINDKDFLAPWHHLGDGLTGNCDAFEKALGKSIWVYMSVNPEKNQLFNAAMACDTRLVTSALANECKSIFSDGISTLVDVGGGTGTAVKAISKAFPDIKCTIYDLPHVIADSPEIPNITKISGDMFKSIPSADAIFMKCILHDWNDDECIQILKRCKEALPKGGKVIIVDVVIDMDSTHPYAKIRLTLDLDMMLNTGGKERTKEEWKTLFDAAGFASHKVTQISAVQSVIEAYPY
Text: (§1) Heterologous Expression and Enzyme Purification—The full-length cDNA generated by RT-PCR was ligated into pFastBac HTa that had been digested with restriction endonucleases BamHI and NotI. The recombinant plasmid was transposed into baculovirus DNA in the Escherichia coli strain DH10BAC (Life Technologies) and then transfected into Spodoptera frugiperda Sf9 cells according to the manufacturer's instructions. The insect cells were propagated and the recombinant virus was amplified according to (16,17). INSECT-XPRESS serum-free medium (Bio Whittaker) was used in the enzyme expression experiments.
(§2) After infection of 20 ml suspension grown insect cells had proceded for 3-4 days at 28° C. and 130 rpm, the cells were removed by centrifugation under sterile conditions at 900× g for 5 min at 4° C. All subsequent steps were performed at 4° C. The pellet was discarded and to the medium was added 0.73 g NaCl, 2.5 ml glycerol and 50 μl […]-mercaptoethanol. The pH was adjusted to 7.0 with 1.0 M NaOH. The His-tagged O-methyltransferase was then purified by affinity chromatography using a cobalt resin (Talon, Clontech) according to the manufacturer's instructions.
(§3) Enzyme assay and product identification: The O-methylation reactions catalysed by the two O-methyltransferases were assayed at least two times in duplicate according to Rüffer et al. (1983a; 1983b) as follows. Substrate (25 nmol), [methyl-3H]-AdoMet (20,000 dpm, 0.4 fmol), AdoMet (10 nmol) Tris/HC1 buffer pH 8.0 (10 μmol), ascorbate (5 μmol) and 5-10 μg of enzyme were incubated in a total volume of 150 μl at 35° C. for 5-60 min. The enzymic reaction was terminated by addition of 200 μl ethylacetate. The organic phase ([…]) was added to 3 ml high flash point liquid scintillation cocktail (Packard) and the radioactivity quantified with a Beckman LS6000TA liquid scintillation counter.
(§4) General Methods—Total RNA was isolated and RNA gels were run and blotted as described previously (20). Genomic DNA was isolated and DNA gels were run and blotted according to (21). cDNA clones were labeled by PCR labeling with [[…]-^32P]dATP. Hybridized RNA on RNA gel blots and DNA on DNA gel blots were visualized with a STORM phosphor imager (Molecular Dynamics). The entire nucleotide sequence on both DNA strands of the full-length clone was determined by dideoxy cycle sequencing using internal DNA sequences for the design of deoxyoligonucleotides as sequencing primers. Saturation curves and double reciprocal plots were constructed with the Fig. P program Version 2.7 (Biosoft, Cambridge, UK). The influence of pH on enzyme activity was monitored in sodium citrate (pH 4-6), sodium phosphate (pH 6-7.0) and Tris-HCl (pH 7.0-9), glycine/NaOH (pH 9-10.5) buffered solutions.

[2] = target: T2, PSOMT1 ((R,S)-reticuline 7-O-methyltransferase) (Papaver somniferum, UniProt Q6WUC2); format: biochemical; conditions: 100% activity = 1.5 pmoles/sec/mg total protein; radioassay
T2 construct: The full-length cDNA generated by RT-PCR was ligated into pFastBac HTa; His6 (N); made in house; host or cells: Spodoptera frugiperda Sf9 (baculovirus, pFastBac HTa)
Text: as §1, §2, §3, §4

T2 sequence (Q6WUC2 whole entry): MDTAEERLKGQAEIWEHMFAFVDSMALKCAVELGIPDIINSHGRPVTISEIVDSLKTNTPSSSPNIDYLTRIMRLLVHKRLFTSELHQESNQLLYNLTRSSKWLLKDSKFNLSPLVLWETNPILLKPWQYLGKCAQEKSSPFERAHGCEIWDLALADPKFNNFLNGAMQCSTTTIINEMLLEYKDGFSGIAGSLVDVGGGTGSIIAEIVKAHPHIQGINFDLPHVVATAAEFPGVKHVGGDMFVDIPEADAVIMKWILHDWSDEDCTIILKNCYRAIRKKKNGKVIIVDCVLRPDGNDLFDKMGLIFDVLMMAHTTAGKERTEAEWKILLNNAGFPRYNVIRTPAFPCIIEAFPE

Compound	Substrate specificity, relative activity of PSOMT2 [1] [%]	Substrate specificity, relative activity of PSOMT1 [2] [%]
O=c1c(O)c(-c2ccc(O)cc2O)oc2cc(O)cc(O)c12 [Morin]	0	0
CN1CC[C@]23c4c5ccc(O)c4O[C@H]2[C@@H](O)C=C[C@H]3[C@H]1C5 [Morphine]	0	0
O=C(O)c1ccc(O)c(O)c1 [Protocatechuic acid]	0	0
COc1c(-c2ccc(O)c(O)c2)oc2cc(O)cc(O)c2c1=O [Quercetin-3-methylether]	0	0
COc1cc(O)c2c(=O)c(O)c(-c3ccc(O)c(O)c3)oc2c1 [Quercetin-7-methylether]	0	0
O=c1c(O)c(-c2ccc(O)c(O)c2)oc2cc(O)cc(O)c12 [Quercetin]	0	0
COC1=C[C@]23CCN(C)[C@H](Cc4ccc(OC)c(O)c42)C3=CC1=O [Salutaridine]	0	0
COc1cc(C(=O)O)ccc1O [Vanillic acid]	0	0
